From patent US4177350A, “Imidazole ethyl oxyalkoxy derivatives and thio analogues thereof” (Siegfried Aktiengesellschaft, priority 1977, dated 1979)

Legend:
Streptococcus faecalis = assay: minimum inhibitory concentration, gradient plate method, Streptococcus faecalis; assay type: cell-based; details: Enterococcus faecalis, 72 h, gradient 0-100 μg/ml, 10% aqueous dimethyl formamide, evaluated three days after inoculation, read-out: Minimum Inhibitory Concentration, Bacteria, Str
Description: (§1) Test evaluation was made three days after inoculation.

[1] = tested on: Trichophyton mentagrophytes; assay: minimum inhibitory concentration, gradient plate method, Trichophyton mentagrophytes; assay type: cell-based; details: 72 h, gradient 0-100 μg/ml, 10% aqueous dimethyl formamide, evaluated three days after inoculation, read-out: Minimum Inhibitory Concentration, Fungi, Tri
Description: as §1

[2] = tested on: Staphylococcus aureus haemolyticus; assay: minimum inhibitory concentration, gradient plate method, Staphylococcus aureus haemolyticus; assay type: cell-based; set-up: key to partial resistancy, Bacteria, St: partial resistancy observed; details: for MIC: 72 h, gradient 0-100 μg/ml, 10% aqueous dimethyl formamide, evaluated three days after inoculation, read-out: Minimum Inhibitory Concentration, Bacteria, St
Description: as §1

Aspergillus niger = assay: minimum inhibitory concentration, gradient plate method, Aspergillus niger; assay type: cell-based; set-up: key to partial resistancy, Fungi, Asp: partial resistancy observed; details: for MIC: 72 h, gradient 0-100 μg/ml, 10% aqueous dimethyl formamide, evaluated three days after inoculation, read-out: Minimum Inhibitory Concentration, Fungi, Asp
Description: as §1

in vivo = details: mouse, po
Description: The results of these tests are summarized in the following Table I together with the oral toxicity values (LD50 per os; mice, values in mg per kg of body weight) determined in the conventional manner.

| Structure (SMILES) | MIC (Streptococcus faecalis) [µg/mL] | MIC [1] [µg/mL] | MIC [2] [µg/mL] | MIC (Aspergillus niger) [µg/mL] | LD50 (in vivo) [mg/kg] | partial resistancy, Fungi, Asp (Aspergillus niger) | partial resistancy, Bacteria, St [2] |
| --- | --- | --- | --- | --- | --- | --- | --- |
| Clc1ccc(SCOC(Cn2ccnc2)c2ccc(Cl)cc2Cl)cc1 (stereo not drawn) [Example 13, 1-β-(4-chlorophenylthiomethoxy-2,4-dichlorophenethyl)-imidazole nitrate] | 10 | < 10 | 10 | < 10 | 3850 |  |  |
| Cc1ccc(SCOC(Cn2ccnc2)c2ccc(Cl)cc2Cl)cc1 (stereo not drawn) [Example 14, 1-β-(4-methylphenylthiomethoxy-2,4-dichlorophenethyl)-imidazole nitrate] | < 10 | < 10 | < 10 | < 10 | > 3000 |  |  |
| Clc1ccc(C(Cn2ccnc2)OCSc2ccc(Cl)c(Cl)c2)c(Cl)c1 (stereo not drawn) [Example 15, 1-β-(3,4-dichlorophenylthiomethoxy-2,4-dichlorophenethyl)-imidazole nitrate] | < 10 | < 10 | < 10 |  | ~7500 | r |  |
| Cc1cc(SCOC(Cn2ccnc2)c2ccc(Cl)cc2Cl)ccc1Br (stereo not drawn) [Example 16, 1-β-(4-bromo-3-methylphenylthiomethoxy-2,4-dichlorophenethyl)-imidazole nitrate] | 10 | < 10 | < 10 | < 10 | > 3000 |  |  |
| Clc1ccc(OCCOCCOC(Cn2ccnc2)c2ccc(Cl)cc2Cl)cc1 (stereo not drawn) [Example 17, 1-{β-[2-(p-chlorophenoxyethoxy)-ethoxy-2,4-dichlorophenethyl]}-imidazole nitrate] | 10 | < 10 | < 10 | 10 | 2500 |  |  |
| OCCSC(Cn1ccnc1)c1ccc(Cl)cc1Cl (stereo not drawn) [Example 18, 1-β-(2,4-dichlorophenethyl-β'-hydroxyethylthio)-imidazole nitrate] | 40 | 30 | 50 |  | 1300 |  |  |
| CSCOC(Cn1ccnc1)c1ccc(Cc2ccc(Cl)cc2)cc1 (stereo not drawn) [Example 19, 1-[β-methylthiomethoxy-4-(4'-chlorobenzyl)-phenethyl]-imidazole nitrate] | 25 | < 10 | 10 | 10 | 970 |  |  |
| Clc1ccc(C(Cn2ccnc2)OCCCOc2ccccc2)c(Cl)c1 (stereo not drawn) [Example 20, 1-β-(3-phenoxypropyloxy-2,4-dichlorophenethyl)-imidazole methane sulfonate] | < 10 | < 10 | < 10 | < 10 | ~2400 |  |  |
| Clc1ccc(SCCSC(Cn2ccnc2)c2ccc(Cl)cc2Cl)cc1 (stereo not drawn) [Example 21, 1-β-(4-chlorophenylthioethylthio-2,4-dichlorophenethyl)-imidazole] |  | < 10 | < 10 | < 10 | > 3000 |  |  |
| Clc1ccc(C(Cn2ccnc2)OCSC2CCCCC2)c(Cl)c1 (stereo not drawn) [Example 22, 1-[β-(cyclohexylthiomethoxy-2,4-dichlorophenethyl)]-imidazole nitrate] | < 10 | < 10 | < 10 | < 10 | > 3000 |  |  |
| Clc1ccc(CSCOC(Cn2ccnc2)c2ccc(Cl)cc2Cl)cc1 (stereo not drawn) [Example 23, 1-β-(p-chlorobenzylthiomethoxy-2,4-dichlorophenethyl)-imidazole nitrate] |  | < 10 | < 10 | < 10 | > 2000 |  |  |
| COc1ccccc1OCOC(Cn1ccnc1)c1ccc(Cl)cc1Cl (stereo not drawn) [Example 24, 1-β-(2-methoxyphenoxymethyloxy-2,4-dichlorophenethyl)-imidazole nitrate] |  | < 10 |  | < 10 | ~1350 |  | r |
| Clc1ccc(SCCSC(Cn2ccnc2)c2ccc(Cl)cc2Cl)nc1 (stereo not drawn) [Example 29, 1-{β-[(5'-chloropyridyl-2'-thio-2-ethylthio)-2,4-dichlorophenethyl]}-imidazole] |  | < 10 | < 10 | < 10 | > 2000 |  |  |
